Five compounds from ChEMBL document CHEMBL1201862, “PubChem BioAssay data set” (2004) can be followed below.

Activity calls are given as the source filed them. Bounds are passed on as bounds.

A word on the IC50: it is the concentration needed to halve the response being measured. Usually EC50 stands for the midpoint of the concentration-response curve.

The target in one assay is Cytochrome P450 2D6 (Homo sapiens, UniProt P10635). Briefly: qHTS Assay for Inhibitors and Substrates of Cytochrome P450 2D6. [Related pubchem assays: 410 ]. It counts as ADME. The following applies: read-out: Potency. In general terms: In qHTS, concentration-response curves come from the screen itself.
Cytochrome P450 2D6, sequence (P10635 whole entry): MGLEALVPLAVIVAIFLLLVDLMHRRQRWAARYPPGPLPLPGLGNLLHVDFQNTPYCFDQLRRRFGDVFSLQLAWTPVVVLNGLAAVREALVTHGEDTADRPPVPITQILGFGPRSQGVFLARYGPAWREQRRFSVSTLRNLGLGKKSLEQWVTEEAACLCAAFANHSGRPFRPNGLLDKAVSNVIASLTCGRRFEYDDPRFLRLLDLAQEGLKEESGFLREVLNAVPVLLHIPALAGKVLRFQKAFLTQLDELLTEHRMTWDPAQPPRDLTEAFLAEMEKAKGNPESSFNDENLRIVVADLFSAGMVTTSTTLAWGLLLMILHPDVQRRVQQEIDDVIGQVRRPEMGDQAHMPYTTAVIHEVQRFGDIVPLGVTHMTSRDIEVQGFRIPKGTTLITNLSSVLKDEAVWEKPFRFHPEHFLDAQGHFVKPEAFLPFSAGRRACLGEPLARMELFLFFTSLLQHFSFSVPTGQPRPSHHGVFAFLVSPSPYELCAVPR
The target in a further assay is Cytochrome P450 3A4 (Homo sapiens, UniProt P08684). The following applies: Potency.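 Note: confirmatory qHTS run detecting inhibitors and substrates of CYP3A4.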
Cytochrome P450 3A4, sequence (P08684 whole entry): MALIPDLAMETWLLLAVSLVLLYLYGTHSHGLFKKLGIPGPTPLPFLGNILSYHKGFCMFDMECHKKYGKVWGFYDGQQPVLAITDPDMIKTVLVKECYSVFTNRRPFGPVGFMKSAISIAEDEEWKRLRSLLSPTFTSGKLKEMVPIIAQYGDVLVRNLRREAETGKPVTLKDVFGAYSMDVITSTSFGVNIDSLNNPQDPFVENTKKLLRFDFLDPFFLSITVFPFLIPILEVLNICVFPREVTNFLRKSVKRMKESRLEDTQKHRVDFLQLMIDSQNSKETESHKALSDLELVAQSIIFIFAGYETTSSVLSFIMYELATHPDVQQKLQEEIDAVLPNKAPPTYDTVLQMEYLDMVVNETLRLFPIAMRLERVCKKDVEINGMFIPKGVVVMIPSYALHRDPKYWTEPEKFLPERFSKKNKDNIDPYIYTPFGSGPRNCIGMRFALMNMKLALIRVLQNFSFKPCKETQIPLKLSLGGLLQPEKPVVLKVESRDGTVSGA
A further assay has as its target Cytochrome P450 2C19 (Homo sapiens, UniProt P33261). Briefly: qHTS Assay for Inhibitors and Substrates of Cytochrome P450 2C19. [Related pubchem assays: 410 ]. Type of assay: ADME. The following applies: read-out: Potency.
The target of the next assay is Cytochrome P450 2C9 (Homo sapiens, UniProt P11712). The following applies: Potency.
Cytochrome P450 2C9, sequence (P11712 whole entry): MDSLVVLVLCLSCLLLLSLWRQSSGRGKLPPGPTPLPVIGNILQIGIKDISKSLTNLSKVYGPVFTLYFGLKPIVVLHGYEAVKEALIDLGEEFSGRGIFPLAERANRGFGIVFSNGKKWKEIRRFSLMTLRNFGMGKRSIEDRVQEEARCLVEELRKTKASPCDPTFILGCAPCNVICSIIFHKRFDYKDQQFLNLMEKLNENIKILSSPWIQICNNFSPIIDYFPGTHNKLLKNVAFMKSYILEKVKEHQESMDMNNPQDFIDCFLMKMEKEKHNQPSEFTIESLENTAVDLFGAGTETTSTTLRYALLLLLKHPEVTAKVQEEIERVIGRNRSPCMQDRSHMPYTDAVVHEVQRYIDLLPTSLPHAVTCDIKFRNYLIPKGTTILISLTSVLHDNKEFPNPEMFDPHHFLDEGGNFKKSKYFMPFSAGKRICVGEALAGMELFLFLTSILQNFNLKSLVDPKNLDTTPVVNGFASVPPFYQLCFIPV
A short description of assay [1]: THP-1 cell cytotoxicity, dose response, cytotoxicity control for non-replicating M. tuberculosis project (AID 489025). It counts as functional.
A short description of assay [2]: microbe, parasite or virus in culture. It counts as functional. Particulars: Mycobacterium tuberculosis.
Assay [3] can be described thus: cells. It counts as functional.
The nature of assay [4]: M. tuberculosis growth inhibition, HTS (AID 449762). Type of assay: functional.
The next assay addresses T1, NADPH oxidase 1 (Homo sapiens, UniProt Q9Y5S8).
T1 sequence (Q9Y5S8 whole entry): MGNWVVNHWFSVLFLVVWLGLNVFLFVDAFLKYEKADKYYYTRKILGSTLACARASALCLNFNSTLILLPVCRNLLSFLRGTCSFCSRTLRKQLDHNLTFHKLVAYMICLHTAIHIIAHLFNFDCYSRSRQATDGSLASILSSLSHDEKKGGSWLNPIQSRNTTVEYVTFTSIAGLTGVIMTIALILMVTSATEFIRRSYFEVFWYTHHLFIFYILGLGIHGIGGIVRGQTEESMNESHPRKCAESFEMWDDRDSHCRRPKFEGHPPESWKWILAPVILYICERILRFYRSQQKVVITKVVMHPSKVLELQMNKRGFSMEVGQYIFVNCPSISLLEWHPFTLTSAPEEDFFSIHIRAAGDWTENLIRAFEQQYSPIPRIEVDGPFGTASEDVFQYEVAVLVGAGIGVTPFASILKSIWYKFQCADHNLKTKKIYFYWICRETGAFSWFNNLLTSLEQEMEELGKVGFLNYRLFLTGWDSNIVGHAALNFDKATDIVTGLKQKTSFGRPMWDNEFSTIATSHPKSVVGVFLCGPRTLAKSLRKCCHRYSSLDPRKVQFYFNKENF
Kind of assay: Late-stage luminescence-based cell-based dose response assay to identify inhibitors of NADPH oxidase 1 (NOX1): Synthesized analogs. Type of assay: functional.

Assay [5] deals with Hepatocyte nuclear factor 4-alpha (Homo sapiens, UniProt P41235). Type of assay: functional, cell-based.
Hepatocyte nuclear factor 4-alpha, sequence (P41235 whole entry): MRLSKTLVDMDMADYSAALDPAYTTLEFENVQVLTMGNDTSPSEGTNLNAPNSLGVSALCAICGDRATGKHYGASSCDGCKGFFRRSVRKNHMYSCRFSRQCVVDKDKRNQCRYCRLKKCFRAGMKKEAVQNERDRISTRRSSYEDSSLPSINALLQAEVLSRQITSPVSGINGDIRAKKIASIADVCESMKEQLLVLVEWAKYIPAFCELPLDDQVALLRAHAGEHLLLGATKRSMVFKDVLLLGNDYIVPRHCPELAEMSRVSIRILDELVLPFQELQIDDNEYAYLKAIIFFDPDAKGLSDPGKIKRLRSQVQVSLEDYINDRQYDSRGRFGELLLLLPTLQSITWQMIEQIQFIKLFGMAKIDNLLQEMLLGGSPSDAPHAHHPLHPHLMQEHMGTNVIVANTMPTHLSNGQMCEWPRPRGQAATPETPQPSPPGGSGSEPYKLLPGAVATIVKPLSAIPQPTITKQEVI
A further assay deals with T2, Galanin receptor type 3 (Homo sapiens, UniProt O60755).
T2 sequence (O60755 whole entry): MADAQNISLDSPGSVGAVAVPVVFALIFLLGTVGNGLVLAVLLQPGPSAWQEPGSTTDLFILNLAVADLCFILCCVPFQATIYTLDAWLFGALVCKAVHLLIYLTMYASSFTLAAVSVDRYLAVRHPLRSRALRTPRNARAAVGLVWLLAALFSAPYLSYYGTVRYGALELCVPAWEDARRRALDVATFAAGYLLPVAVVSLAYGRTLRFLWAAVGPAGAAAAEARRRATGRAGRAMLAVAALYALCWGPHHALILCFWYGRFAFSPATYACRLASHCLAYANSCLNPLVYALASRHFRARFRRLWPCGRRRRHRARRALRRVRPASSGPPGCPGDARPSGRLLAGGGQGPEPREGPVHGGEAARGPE
Briefly: Fluorescence-based cell-based primary high throughput dose response assay to identify antagonists of the Galanin Receptor 3 (GalR3). It counts as functional.

Assay [6] is described as follows: reduction of Shn3 3'UTR-driven luciferase in osteoblasts – cell-based, Clone20 osteoblasts, firefly luciferase, cherry-picked, dose response (AID 624132).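 Note: firefly luciferase luminescence from reporter carrying the Shn3 3'UTR in osteoblasts.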 Type of assay: functional.
Assay [7] can be described thus: cells. It counts as functional, cell-based. Particulars: HEK-CNG.
Assay [8] concerns the target G-protein coupled receptor 55 (Homo sapiens, UniProt Q9Y2T6). Kind of assay: selective activators of receptor GPR55 – imaging, U2OS cells, beta-arrestin-GFP redistribution, primary screen (AID 1961). Type of assay: functional.
Assay [9] can be described thus: non-specific 3'UTR reporter inhibition in Clone20-Shn3RL – cell-based, Renilla luciferase, cherry-picked, counter-screen for Shn3 inhibitor project, dose response (AID 624133). It counts as functional.
The target of assay [10] is E3 ubiquitin-protein ligase Mdm2 (Homo sapiens, UniProt Q00987). Kind of assay: MDM2-luc reporter signal enhancers, multi-concentration potency testing, MDM2 ubiquitin-protein ligase inhibitor program, whole-cell format, luminescence detection, 384-well microplate (AID 1394).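 Note: MDM2 E3 inhibitors raise luminescence so EC50 is for signal enhancement.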 Type of assay: functional.
E3 ubiquitin-protein ligase Mdm2, sequence (Q00987 whole entry): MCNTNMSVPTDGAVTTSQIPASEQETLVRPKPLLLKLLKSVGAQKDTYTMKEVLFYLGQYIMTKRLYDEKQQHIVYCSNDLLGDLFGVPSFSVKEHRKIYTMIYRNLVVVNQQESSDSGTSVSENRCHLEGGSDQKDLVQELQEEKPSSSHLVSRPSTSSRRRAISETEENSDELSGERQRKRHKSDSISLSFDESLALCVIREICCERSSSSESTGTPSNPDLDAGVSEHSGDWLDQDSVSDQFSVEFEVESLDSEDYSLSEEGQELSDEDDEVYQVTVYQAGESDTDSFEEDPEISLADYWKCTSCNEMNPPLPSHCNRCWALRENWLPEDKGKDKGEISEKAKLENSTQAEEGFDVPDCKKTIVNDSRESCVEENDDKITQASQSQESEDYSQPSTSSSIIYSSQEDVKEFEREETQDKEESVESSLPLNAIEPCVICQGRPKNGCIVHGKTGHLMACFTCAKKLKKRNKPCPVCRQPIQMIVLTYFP
The target in assay [11] is Solute carrier family 12 member 2/member 5 (Homo sapiens, UniProt P55011+Q9H2X9). Kind of assay: KCC2 and NKCC1 inhibition by rubidium flux, cell-based, NKCC1 counter-screen (AID 1734). Type of assay: functional, HEK293. (A counterscreen serves to expose hits that act by an unwanted route or on another target.)

G-protein coupled receptor 55, sequence (Q9Y2T6 whole entry): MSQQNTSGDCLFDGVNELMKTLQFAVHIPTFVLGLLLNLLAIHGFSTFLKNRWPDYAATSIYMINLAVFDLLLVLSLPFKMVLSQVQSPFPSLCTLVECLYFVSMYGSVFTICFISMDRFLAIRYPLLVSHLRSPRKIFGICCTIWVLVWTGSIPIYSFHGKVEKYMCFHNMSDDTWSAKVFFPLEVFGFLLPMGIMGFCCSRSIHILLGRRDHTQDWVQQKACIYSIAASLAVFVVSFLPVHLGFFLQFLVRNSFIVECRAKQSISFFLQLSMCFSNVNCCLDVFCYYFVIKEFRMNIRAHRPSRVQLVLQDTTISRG
Cytochrome P450 2C19, sequence (P33261 whole entry): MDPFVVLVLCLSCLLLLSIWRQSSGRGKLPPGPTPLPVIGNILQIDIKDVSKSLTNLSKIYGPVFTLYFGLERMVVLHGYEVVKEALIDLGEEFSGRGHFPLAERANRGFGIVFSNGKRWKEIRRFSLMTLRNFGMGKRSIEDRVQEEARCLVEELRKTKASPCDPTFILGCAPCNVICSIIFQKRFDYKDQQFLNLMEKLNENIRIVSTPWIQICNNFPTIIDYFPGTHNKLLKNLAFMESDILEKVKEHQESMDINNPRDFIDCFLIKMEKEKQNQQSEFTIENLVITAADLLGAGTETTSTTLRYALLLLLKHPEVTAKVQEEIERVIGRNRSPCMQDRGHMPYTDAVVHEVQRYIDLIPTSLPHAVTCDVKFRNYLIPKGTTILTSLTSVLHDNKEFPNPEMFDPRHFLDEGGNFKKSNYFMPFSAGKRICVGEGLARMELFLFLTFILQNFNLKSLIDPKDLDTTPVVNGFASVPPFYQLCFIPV

As to `O=c1c(O)c(-c2ccc(O)c(O)c2)oc2ccccc12`, the AC50 at Cytochrome P450 2D6 is 31.6 µM (inconclusive); on Cytochrome P450 3A4, 31.6 µM (inconclusive); at Cytochrome P450 2C19, 25.1 µM (inconclusive); at Cytochrome P450 2C9 it was 31.6 µM (inconclusive).

Consider `CCCCNC(=O)Nc1nnc(-c2ccc(OCC)cc2)o1`, for which the CC50 in assay [1] and in assay [2] was > 40 µM (active) in each case. Further, the IC50 was 26.2 µM (active) in the assay “cells [3]” and > 100 µM (active) in assay [4].

On to `C=CC(=O)N1c2ccccc2Sc2ccc(NC(=O)OCC)cc21`, for which the IC50 on NADPH oxidase 1 was > 50 µM (not active); in assay [5] it was 12.2 µM (inactive).

Consider `COc1ccccc1-c1cc(C(F)(F)F)nc(S(=O)(=O)CCCC(=O)Nc2cccnc2Cl)n1`, for which the IC50 at Galanin receptor type 3 is > 29.9 µM (inactive). The results for the AC50 in assay [6] and in assay [9] were 10.6 µM (active) and 13.1 µM (active), respectively. Besides, the EC50 is > 29.9 µM (inactive) in “cells [7]”, 2.94 µM (active) in assay [8] and 2 µM (not active) in assay [10].

With `Cc1nc(CC(=O)Nc2nc(-c3ccccc3)cs2)cs1`, the IC50 in assay [11] is 79 µM (active).
